These results are taken from patent US12583851B2, “Heteroaryl-substituted pyrazine derivatives as pesticides” (Elanco Animal Health GmbH, priority 2019, dated 2026).

Holding throughout (format): in vivo
For assay [1], the system named is Rhipicephalus (Boophilus) microplus larvae (strain Parkhurst, resistant against synthetic pyrethroids). The assay is described as follows: Rhipicephalus (Boophilus) microplus in-vitro contact test, larval cattle tick. To be noted: after 48 hours, read-out: efficacy (larvae dead or moribund); for pest or weed control at 1 µg/cm2, 100 g/ha: 1 μg/cm^2 (=100 g/ha); for pest or weed control at 5 µg/cm2, 500 g/ha: 5 μg/cm^2 (=500 g/ha). Put shortly: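 Pyrethroid-resistant larvae (strain Parkhurst), 20–50 per tube, exposed by contact to a dried acetone film of compound (5 μg/cm² at 900 ppm) for 48 h at 27 °C and 85% humidity. Percent dead or moribund larvae scored from negative geotactic behaviour.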

The test system of assay [2] is adult cat fleas (Ctenocephalides felis). The assay is described as follows: Ctenocephalides felis in-vitro contact test, adult cat flea. Particulars: after 48 hours, read-out: efficacy (fleas dead or moribund); for pest or weed control at 1 µg/cm2, 100 g/ha: 1 μg/cm^2 (=100 g/ha). Put shortly: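 Acetone solution coated onto glass tube walls; 900 ppm gives 5 μg/cm². Once dry, 5–10 adult fleas per tube held at room temperature for 48 h. Efficacy (%) is the share of fleas dead or moribund, i.e. unable to climb away on a 45–50° C heating plate.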

The subject of assay [3] is fall armyworm larvae (Spodoptera frugiperda). The assay is described as follows: Spodoptera frugiperda spray test. Particulars: 168 h, maize leaf sections, after 7 days. Put shortly: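 Percent larval kill read at day 7, from 0% (no caterpillars dead) to 100% (all dead). Larvae were placed on dried Zea mays leaf discs previously sprayed with test preparations made from an acetone/DMF solution diluted in 1000 ppm emulsifier-containing water.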

Assay [4] relates to green peach aphid (Myzus persicae). The assay can be described thus: Myzus persicae spray test. Particulars: foliar, 120 h, Chinese cabbage leaf disks, after 5 days. The protocol: Myzus persicae—Spray Test
Solvent: 78.0 parts by weight acetone • 1.5 parts by weight dimethylformamide
(§1) Emulsifier: alkylarylpolyglycol ether
To produce a suitable preparation of active compound, 1 part by weight of active compound is mixed with the stated amount of solvents and is diluted with water, containing an emulsifier concentration of 1000 ppm, to the desired concentration. Further test concentrations are prepared by dilution with emulsifier containing water.
Chinese cabbage (Brassica pekinensis) leaf disks infected with all instars of the green peach aphid (Myzus persicae), are sprayed with a preparation of the active ingredient of the desired concentration.
After 5 days mortality in % is determined. 100% means all aphids have been killed and 0% means none of the aphids have been killed.

Assay [5] concerns adult brown dog ticks (Rhipicephalus sanguineus). The assay is described as follows: Rhipicephalus sanguineus in-vitro contact test, adult brown dog ticks. To be noted: 48 h, after 48 hours, read-out: efficacy (ticks dead or moribund); for pest or weed control at 1 µg/cm2, 100 g/ha: 1 μg/cm^2 (=100 g/ha); for pest or weed control at 5 µg/cm2, 500 g/ha: 5 μg/cm^2 (=500 g/ha). As for the experimental part:
Rhipicephalus sanguineus—In-Vitro Contact Tests with Adult Brown Dog Ticks
9 mg compound is solved in 1 mL acetone and diluted with acetone to the desired concentration. […] the test solution is filled in 25 mL glass test tubes and homogeneously distributed on the inner walls by rotation and tilting on a shaking device (2 h at 30 rpm). With a compound concentration of 900 ppm, an inner surface of 44.7 cm^2 and a homogeneous distribution, a dose of 5 μg/cm^2 is achieved.
After the solvent has evaporated, each test tube is filled with 5-10 adult brown dog ticks (Rhipicephalus sanguineus), closed with a perforated lid and incubated in a lying position at room temperature and relative humidity. After 48 hours efficacy is determined. The ticks are patted on the ground of the tubes and are incubated on a heating plate at 45-50° C. for at most 5 minutes Immotile or uncoordinated moving ticks, which are not able to escape the heat by climbing upwards, are marked as dead or moribund.
An efficacy of 100% means all ticks are dead or moribund; 0% means no ticks are dead or moribund.

Assay [6] relates to larvae of the banded cucumber beetle (Diabrotica balteata). The assay is described as follows: Diabrotica balteata spray test. To be noted: 168 h, after 7 days, read-out: efficacy (seedling growth); for pest or weed control at 6.4 µg/disc, 20 g/ha: 20 g/ha (=6.4 μg/well); for pest or weed control at 32 µg/disc, 100 g/ha: 100 g/ha (=32 μg/well). Put shortly:
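Efficacy was read 7 days after infesting each unit with 10–20 banded cucumber beetle larvae, as % of seedlings growing like untreated, uninfested controls. Before infestation, wheat seeds germinated 1 day on agar (5 per well) were sprayed with the active ingredient. The active was formulated in acetone/DMF and diluted in water containing emulsifier.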

Assay [7] has as its system larvae of the southern green stink bug (Nezara viridula). The assay can be described thus: Nezara viridula spray test. To be noted: 96 h, 500 g/ha, barley plants, after 4 days. The protocol: Nezara viridula—Spray Test
Solvent: 78.0 parts by weight of acetone • • 1.5 parts by weight of dimethylformamide
as §1
To produce a suitable preparation of active compound, 1 part by weight of active compound is mixed with the stated amount of solvent, and the concentrate is diluted with water, containing an emulsifier concentration of 1000 ppm, to the desired concentration. Further test concentrations are prepared by dilution with emulsifier containing water.
Barley plants (Hordeum vulgare) infested with larvae of the southern green stink bug (Nezara viridula) are sprayed with a test solution containing the desired concentration of the active ingredient.
After 4 days mortality in % is determined. 100% means all the stink bugs have been killed; 0% means none of the stink bugs have been killed.

What is called mortality is the percentage killed. Turning to `CC(NC(=O)c1cc(C(F)(F)F)cc(C(F)(F)F)c1)c1nccnc1-c1ccc(C(=O)N(C)C)cn1` (racemic) [Example I-38, (rac)-6-(3-{1-[3,5-Bis(trifluoromethyl)benzamido]ethyl}pyrazin-2-yl)-N,N-dimethylpyridine-3-carboxamide], the pest or weed control at 1 µg/cm2, 100 g/ha in assay [1] is 100%; in assay [2], 90%. In assay [1], the pest or weed control at 5 µg/cm2, 500 g/ha was 100%. The mortality at 100 g/ha turned out to be 100% in assay [3] and 90% in assay [4].

On to `CC(NC(=O)c1cc(C(F)(F)F)cc(C(F)(F)F)c1)c1nccnc1-n1cc(C(=O)N(C)CC2CC2)cn1` (racemic) [Example I-131, (rac)-1-(3-{1-[3,5-Bis(trifluoromethyl)benzamido]ethyl}pyrazin-2-yl)-N-(cyclopropylmethyl)-N-methyl-1H-pyrazole-4-carboxamide], for which, in assay [1], the pest or weed control at 1 µg/cm2, 100 g/ha was 100% and the pest or weed control at 5 µg/cm2, 500 g/ha came to 100%. In addition, in assay [3], the mortality at 100 g/ha amounted to 100%. Moreover, in assay [5], the pest or weed control at 1 µg/cm2, 100 g/ha amounted to 80% and the pest or weed control at 5 µg/cm2, 500 g/ha is 80%. Also, in assay [6], the pest or weed control at 6.4 µg/disc, 20 g/ha stood at 100% and the pest or weed control at 32 µg/disc, 100 g/ha was determined as 100%. This compound yielded a mortality at 500 g/ha in assay [7] of 100%.

Turning to `CC(NC(=O)c1cc(Cl)cc(S(C)(=O)=O)c1)c1nccnc1-n1cc(C(F)(F)F)cn1` (racemic) [Example I-93, (rac)-3-Chloro-5-(methanesulfonyl)-N-[1-{3-[4-(trifluoromethyl)-1H-pyrazol-1-yl]pyrazin-2-yl}ethyl]benzamide], in assay [1], the pest or weed control at 1 µg/cm2, 100 g/ha is 100% and the pest or weed control at 5 µg/cm2, 500 g/ha worked out at 100%. In assay [3], the mortality at 100 g/ha turned out to be 100%. Besides, the pest or weed control at 5 µg/cm2, 500 g/ha in assay [5] is 80%. In addition, in assay [6], the pest or weed control at 6.4 µg/disc, 20 g/ha turned out to be 100% and the pest or weed control at 32 µg/disc, 100 g/ha was 100%. The mortality at 500 g/ha in assay [7] is 100%.

For the compound `CCN(C)C(=O)c1cnc(-c2ncc(C)nc2[C@H](C)NC(=O)c2cc(C(F)(F)F)cc(C(F)(F)F)c2)s1` [Example I-155, (+)-2-(3-{(1S)-1-[3,5-Bis(trifluoromethyl)benzamido]ethyl}-5-methylpyrazin-2-yl)-N-ethyl-N-methyl-1,3-thiazole-5-carboxamide], the mortality at 100 g/ha in assay [3] came out at 100%. In assay [6], the pest or weed control at 6.4 µg/disc, 20 g/ha stood at 100% and the pest or weed control at 32 µg/disc, 100 g/ha was 100%. Further, the mortality at 500 g/ha in assay [7] came out at 100%.

`CC(NC(=O)c1cc(C(F)(F)F)cc(C(F)(F)F)c1)c1nccnc1-n1cc(C(=O)N(C)C2CC2)cn1` (racemic) [Example I-139, (rac)-1-(3-{1-[3,5-Bis(trifluoromethyl)benzamido]ethyl}pyrazin-2-yl)-N-cyclopropyl-N-methyl-1H-pyrazole-4-carboxamide]: in assay [1], the pest or weed control at 1 µg/cm2, 100 g/ha amounted to 100% and the pest or weed control at 5 µg/cm2, 500 g/ha stood at 100%. In addition, the mortality at 100 g/ha in assay [3] came out at 100%. Besides, the pest or weed control at 32 µg/disc, 100 g/ha in assay [6] was found to be 80%. This compound also had a mortality at 500 g/ha in assay [7] of 100%.

In assay [7], `CC(NC(=O)c1cc(Cl)cc(S(C)(=O)=O)c1)c1nccnc1-n1cc(Cl)cn1` (racemic) [Example I-99, (rac)-3-Chloro-N-{1-[3-(4-chloro-1H-pyrazol-1-yl)pyrazin-2-yl]ethyl}-5-(methanesulfonyl)benzamide] registered a mortality at 500 g/ha of 100%.

For the compound `CC(NC(=O)c1cc(C(F)(F)F)cc(C(F)(F)F)c1)c1nccnc1-c1ccc(C(=O)N2C[C@@H](C)O[C@@H](C)C2)cn1` (single isomer, unassigned) [Example I-166, N-[1-(3-{5-[(cis)-2,6-Dimethylmorpholine-4-carbonyl]pyridin-2-yl}pyrazin-2-yl)ethyl]-3,5-bis(trifluoromethyl)benzamide], the results for the mortality at 100 g/ha in assay [3] and in assay [4] were 100% and 90%, respectively.

Consider `CC(NC(=O)c1cc(Cl)cc(OC(F)(F)F)c1)c1nccnc1-n1cc(C(=O)N(C)CC2CC2)cn1` (racemic) [Example I-133, (rac)-1-(3-{1-[3-Chloro-5-(trifluoromethoxy)benzamido]ethyl}pyrazin-2-yl)-N-(cyclopropylmethyl)-N-methyl-1H-pyrazole-4-carboxamide], for which the pest or weed control at 1 µg/cm2, 100 g/ha in assay [1], in assay [2] and in assay [5] was 100% throughout. Besides, the pest or weed control at 5 µg/cm2, 500 g/ha in assay [1], in assay [2] (5 μg/cm^2 (=500 g/ha)) and in assay [5] was 100% in each case. The mortality at 100 g/ha in assay [3] came out at 100%. For the same compound, the pest or weed control at 6.4 µg/disc, 20 g/ha in assay [6] was 100%. Besides, in assay [6], the pest or weed control at 32 µg/disc, 100 g/ha was determined as 100%. This compound also gave a mortality at 500 g/ha in assay [7] of 100%.

Take `CCN(C)C(=O)c1cnc(-c2nccnc2[C@@H](C)NC(=O)c2cc(C(F)(F)F)cc(C(F)(F)F)c2)s1` [Example I-84, 2-(3-{(1R)-1-[3,5-bis(trifluoromethyl)benzamido]ethyl}pyrazin-2-yl)-N-ethyl-N-methyl-1,3-thiazole-5-carboxamide]: in assay [4], the mortality at 100 g/ha came to 90%.

Consider `COc1ccc(-c2nccnc2C(C)NC(=O)c2cc(Cl)cc(OC(F)(F)F)c2)nc1` (stereo not shown) [Example I-28], for which, in assay [1], the pest or weed control at 1 µg/cm2, 100 g/ha is 90% and the pest or weed control at 5 µg/cm2, 500 g/ha was determined as 80%. The mortality at 100 g/ha in assay [4] was determined as 90%. Further, in assay [6], the pest or weed control at 6.4 µg/disc, 20 g/ha came out at 100% and the pest or weed control at 32 µg/disc, 100 g/ha is 80%.

Take `CC(NC(=O)c1cc(C(F)(F)F)cc(C(F)(F)F)c1)c1nccnc1-n1cc(C(=O)N(C)C)cn1` (racemic) [Example I-88, (rac)-1-(3-{1-[3,5-Bis(trifluoromethyl)benzamido]ethyl}pyrazin-2-yl)-N,N-dimethyl-1H-pyrazole-4-carboxamide]: in assay [1], the pest or weed control at 1 µg/cm2, 100 g/ha came out at 100% and the pest or weed control at 5 µg/cm2, 500 g/ha is 100%. Besides, in assay [3], the mortality at 100 g/ha worked out at 100%. Besides, in assay [4], the mortality at 100 g/ha came out at 90%. In addition, in assay [6], the pest or weed control at 6.4 µg/disc, 20 g/ha worked out at 100% and the pest or weed control at 32 µg/disc, 100 g/ha worked out at 100%.

Consider `CCN(CC)C(=O)c1ccc(-c2nccnc2C(C)NC(=O)c2cc(C(F)(F)F)cc(C(F)(F)F)c2)nc1` (single isomer, unassigned) [Example I-160, 6-(3-{1-[3,5-Bis(trifluoromethyl)benzamido]ethyl}pyrazin-2-yl)-N,N-diethylpyridine-3-carboxamide], for which the mortality at 100 g/ha was 100% in assay [3] and 90% in assay [4].

In the case of `CC(NC(=O)c1cc(C(F)(F)F)cc(C(F)(F)F)c1)c1nccnc1-c1ccc(C(=O)N(C)CC2CC2)cn1` (single isomer, unassigned) [Example I-164, 6-(3-{1-[3,5-Bis(trifluoromethyl)benzamido]ethyl}pyrazin-2-yl)-N-(cyclopropylmethyl)-N-methylpyridine-3-carboxamide], the results for the mortality at 100 g/ha in assay [3] and in assay [4] were 100% and 90%, respectively.
